ChEMBL document CHEMBL1687934, “The discovery of potent and long-acting oral factor Xa inhibitors with tetrahydroisoquinoline and benzazepine P4 motifs” (Bioorg Med Chem Lett, 2011)

Columns and labels:
Format in all cases: ADME, organism-based
[1] = Plasma clearance in iv or po dosed Sprague-Dawley rat
[2] = Volume of distribution at steady state in iv or po dosed Sprague-Dawley rat; settings: in vivo, read-out: Vdss
[3] = Oral bioavailability in Sprague-Dawley rat; settings: in vivo
[4] = Half life in iv or po dosed Sprague-Dawley rat; settings: in vivo

Row | clearance [1] | Vd [2] | bioavailability [3] | half-life [4] | Compound
1 | 6.8 mL/min/kg | 5.5 L/kg | 10% | 9.7 h | O=C1[C@@H](NS(=O)(=O)c2ccc3cc(Cl)ccc3c2)CCN1c1ccc2c(c1)CCCNC2
2 | 4 mL/min/kg | 3.6 L/kg | 24% | 11 h | O=C1[C@@H](NS(=O)(=O)c2ccc3cc(Cl)ccc3c2)CCN1c1ccc2c(c1)CCNC2
3 | 1.6 mL/min/kg | 2.4 L/kg | > 10% | 18 h | CN[C@@H](C)c1ccc(N2CC[C@H](NS(=O)(=O)c3ccc4cc(Cl)ccc4c3)C2=O)c(F)c1
4 | 7.8 mL/min/kg | 2.6 L/kg | 45% | 4.4 h | O=C1[C@@H](NS(=O)(=O)/C=C/c2ccc(Cl)s2)CCN1c1ccc2c(c1)CCCNC2
5 | 2.7 mL/min/kg | 1.5 L/kg | 7% | 7.8 h | O=C1[C@@H](NS(=O)(=O)c2ccc3c(Cl)c[nH]c3c2)CCN1c1ccc2c(c1F)CCNC2
6 | 12 mL/min/kg | 4.1 L/kg | < 1% | 6.1 h | O=C1[C@@H](NS(=O)(=O)c2ccc3cc[nH]c3c2)CCN1c1ccc2c(c1)CCNC2
7 | 3 mL/min/kg | 0.9 L/kg |  | 3.5 h | O=C1[C@@H](NS(=O)(=O)/C=C/c2ccc(Cl)s2)CCN1c1ccc2c(c1)CCNC2
8 | 1.3 mL/min/kg | 0.5 L/kg | 6% | 6.2 h | O=C1[C@@H](NS(=O)(=O)c2ccc3c(Cl)c[nH]c3c2)CCN1c1cc2c(cc1F)CNCC2
9 | 2.1 mL/min/kg | 2.4 L/kg |  | 6.7 h | O=C1[C@@H](NS(=O)(=O)c2ccc3cc(Cl)ccc3c2)CCN1c1ccc2c(c1F)CCNC2
10 | 7.7 mL/min/kg | 2.9 L/kg | < 1% | 6.3 h | O=C1[C@@H](NS(=O)(=O)c2ccc3c(Cl)c[nH]c3c2)CCN1c1ccc2c(c1)CCNC2
11 | 1.4 mL/min/kg | 0.5 L/kg | 43% | 4.9 h | O=C1[C@@H](NS(=O)(=O)/C=C/c2ccc(Cl)s2)CCN1c1cc2c(cc1F)CNCC2
12 | 1.7 mL/min/kg | 1 L/kg | 28% | 7.5 h | O=C1[C@@H](NS(=O)(=O)c2ccc3cc(Cl)ccc3c2)CCN1c1cc2c(cc1F)CNCC2
13 | 26 mL/min/kg | 0.7 L/kg | 33% | 0.4 h | CN1CCc2cc(N3CC[C@H](NS(=O)(=O)/C=C/c4ccc(Cl)s4)C3=O)ccc2C1
14 | 3 mL/min/kg | 0.9 L/kg | 68% | 3.3 h | O=C1[C@@H](NS(=O)(=O)/C=C/c2ccc(Cl)s2)CCN1c1ccc2c(c1F)CCNC2
